Tested on: MAb AGG-C1
Experiment: Competitive inhibition ELISA validating the neoepitope specificity of MAb AGG-C1
Type: binding, mouse
Details: competitor 1.0-1000 nmol/ml, MAb AGG-C1 0.04 μg/ml, FIG. 5
Method: Streptavidin-coated microtiter plates (Pierce, Rockford, Ill.) were coated with N-terminally biotinylated peptide aggc1 (b-aggc1) by incubating each well with 100 μl of b-aggc1 (100 ng/ml) for 1 h at room temperature. After washing 4 times with phosphate-buffered saline containing 0.01% Tween-20 (PBS-Tween), wells were blocked for 1 h at room temperature with 100 μl of PBS-Tween containing 2% BSA, followed by 4 washes with PBS-Tween.
In order to validate the neoepitope nature of MAb AGG-C1, competition mixtures (100 μl) comprised of MAb AGG-C1 (0.04 μg/ml) and 1.0-1000 nmol/ml of the synthetic peptides GGLPLPRNITEGE (SEQ ID NO:22), GGLPLPRNITEGE ARGSVILTVK-CONH2 (SEQ ID NO:23), undigested aggrecan, or ADAMTS-4 digested aggrecan were preincubated for 1 h at room temperature. Mixtures were then transferred to b-aggc1 coated wells. After a further incubation for 1 h at room temperature, the plates were washed 4 times with PBS-Tween then incubated for 1 h at room temperature with 100 μl of peroxidase-conjugated secondary goat anti-mouse IgG (1:10,000). Following 4 final washes with PBS-Tween, the wells were incubated with TMB 1 component microwell peroxidase substrate (BioFX Laboratories, Owings Mills, Md.). Color development was terminated by the addition of 0.18 M H2SO4, and the absorbance was monitored spectrophotometrically at 450 nm.

Substance | competition for MAb AGG-C1 binding to biotinylated aggc1 peptide
undigested aggrecan: Intact bovine aggrecan, used as ELISA competitor | did not compete
ADAMTS4 digested aggrecan: Bovine aggrecan digested with ADAMTS-4, used as ELISA competitor | Dose-dependent competition
GGLPLPRNITEGE (listed as Homo sapiens) [Synthetic peptide whose C-terminus corresponds to E373 of aggrecan core protein] | Dose-dependent competition
GGPLPRNITEGEARGSVILTVK [Synthetic peptide spanning the aggrecanase cleavage site] | did not compete

Reference: patent US20050260733A1, “Proteases and uses thereof” (WYETH, priority 2004, published 2005)
